The results in this text go back to patent US9655889B2, “Inhibitors of human immunodeficiency virus replication” (priority 2013, dated 2017).

SMILES strings stand for the structures.

This assay deals with recombinant NL-Rluc virus. Nature of the assay: Inhibition of HIV replication (NL-RLuc virus luciferase assay in MT-2 cells). In kind it is cell-based. To be noted: Human immunodeficiency virus 1, MT2, 120 h.

For the molecule `Cc1cc2nc(-c3nnc(Cc4ccccc4)o3)cn2c(N2CCC(C)(C)CC2)c1[C@H](OC(C)(C)C)C(=O)O` [Example 5, (S)-2-(2-(5-Benzyl-1,3,4-oxadiazol-2-yl)-5-(4,4-dimethylpiperidin-1-yl)-7-methylimidazo[1,2-a]pyridin-6-yl)-2-(tert-butoxy)acetic acid], the EC50 (as a rule, the concentration needed to bring the measured effect to its halfway point) was 8 nM. With `C=CCOC1(C)CCN(c2c([C@H](OC(C)(C)C)C(=O)O)c(C)cc3nc(NS(=O)(=O)Cc4ccc(F)cc4)cn23)CC1` [Example 8, (S)-2-(5-(4-(Allyloxy)-4-methylpiperidin-1-yl)-2((4-fluorophenyl)methylsulfonamido)-7-methylimidazo[1,2-a]pyridin-6-yl)-2-(tert-butoxy)acetic acid] the figure was 3300 nM; with `Cc1cc2nc(-c3nc(Cc4ccccc4)no3)cn2c(N2CCC(C)(C)CC2)c1[C@H](OC(C)(C)C)C(=O)O` [Example 4, (S)-2-(2-(3-Benzyl-1,2,4-oxadiazol-5-yl)-5-(4,4-dimethylpiperidin-1yl)-7-methylimidazo[1,2-a]pyridin-6-yl)-2-(tert-butoxy)acetic acid], 3 nM; with `Cc1cc2nc(-c3ncc(Cc4ccc(F)cc4)o3)cn2c(N2CCC(C)(C)CC2)c1[C@H](OC(C)(C)C)C(=O)O` [Example 2, (S)-2-(tert-Butoxy)-2-(5-(4,4-dimethylpiperidin-1-yl)-2-(5-(4-fluorobenzyl)oxazol-2-yl)-7-methylimidazo[1,2-a]pyridin-6-yl)acetic acid], 2 nM. In the case of `Cc1cc(CNC(=O)c2cn3c(N4CCC(C)(C)CC4)c([C@H](OC(C)(C)C)C(=O)O)c(C)cc3n2)ccc1F` [Example 1, (S)-2-(tert-Butoxy)-2-(5-(4,4-dimethylpiperidin-1-yl)-2-((4-fluoro-3-methylbenzyl)carbamoyl)-7-methylimidazo[1,2-a]pyridin-6-yl)acetic acid], the EC50 came out at 8 nM.

Turning to `Cc1cc2nc(-c3ncc(Cc4ccc(F)cc4)[nH]3)cn2c(N2CCC(C)(C)CC2)c1[C@H](OC(C)(C)C)C(=O)O` [Example 7, (S)-2-(tert-Butoxy)-2-(5-(4,4-dimethylpiperidin-1-yl)-2-(5-(4-fluorobenzyl)-1H-imidazol-2-yl)-7-methylimidazo[1,2-a]pyridin-6-yl)acetic acid], the EC50 is 34 nM. Consider `Cc1cc2nc(-c3nc(Cl)c(Cc4ccc(F)cc4)[nH]3)cn2c(N2CCC(C)(C)CC2)c1[C@H](OC(C)(C)C)C(=O)O` [Example 6, (S)-2-(tert-Butoxy)-2-(2-(4-chloro-5-(4-fluorobenzyl)-1H-imidazol-2-yl)-5-(4,4-dimethylpiperidin-1-yl)-7-methylimidazo[1,2-a]pyridin-6)acetic acid], for which the EC50 was 13 nM.

In the case of `Cc1cc2nc(-c3ncc(Cc4ccc(F)cc4)s3)cn2c(N2CCC(C)(C)CC2)c1[C@H](OC(C)(C)C)C(=O)O` [Example 3, (S)-2-(tert-Butoxy)-2-(5-(4,4-dimethylpiperidin-1-yl)-2-(5-(4-fluorobenzyl)thiazol-2-yl)-7-methylimidazo[1,2-a]pyridin-6-yl)acetic acid], the EC50 amounted to 21 nM. Then `C=CCOC1(C)CCN(c2c([C@H](OC(C)(C)C)C(=O)O)c(C)cc3nc(NS(=O)(=O)c4ccc(F)cc4)cn23)CC1` [Example 9, (S)-2-(5-(4-(Allyloxy)-4-methylpiperidin-1-yl)-2-(4-fluorophenylsulfonamido)-7-methylimidazo[1,2-a]pyridin-6-yl)-2-(tert-butoxy)acetic acid], with 6030 nM.
